According to PMC4195943, “A novel small-molecule MRCK inhibitor blocks cancer cell invasion” (Cell Communication and Signaling : CCS, 2014):

Assays:
[1] = target: T1, MRCKβ (Homo sapiens, UniProt Q9Y5S2); experiment: MLC phosphorylation in MDA-MB-231 cells expressing doxycycline-induced MRCKβ kinase domain (quantitative western blot); format: cell-based
T1 construct: The kinase domains of MRCKβ (1–473), ROCK1 (1–535) or ROCK2 (1–532) were gene synthesized; expressed in transfected cells; host or cells: MDA-MB-231 D3H2LN-Luc Tet3G cells, pTRE3G-MRCKβ (1–473)
T1 sequence (Q9Y5S2 1-473): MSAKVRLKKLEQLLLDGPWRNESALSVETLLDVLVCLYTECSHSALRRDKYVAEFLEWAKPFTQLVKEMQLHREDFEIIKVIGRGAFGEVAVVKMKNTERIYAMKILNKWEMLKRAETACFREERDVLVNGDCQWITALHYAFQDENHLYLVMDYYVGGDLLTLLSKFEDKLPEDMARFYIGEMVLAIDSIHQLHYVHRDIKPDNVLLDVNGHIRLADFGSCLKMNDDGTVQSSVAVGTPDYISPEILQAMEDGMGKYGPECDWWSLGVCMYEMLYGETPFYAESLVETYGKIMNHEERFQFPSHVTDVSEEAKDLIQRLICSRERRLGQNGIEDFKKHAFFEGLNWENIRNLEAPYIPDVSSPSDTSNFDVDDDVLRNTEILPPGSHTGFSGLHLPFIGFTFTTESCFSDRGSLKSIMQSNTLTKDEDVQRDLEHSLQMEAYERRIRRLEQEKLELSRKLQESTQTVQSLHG
Description: (A) MDA-MB-231 breast cancer cells expressing doxycycline inducible ROCK1, ROCK2 or MRCKβ kinase domains were established as indicated. Following treatment with doxycycline for 18 hours to induce expression, cell lysates were western blotted with antibodies as indicated.
MDA-MB-231 D3H2LN-Luc cells (Caliper LifeScience) were grown in MEM/EBSS (Hyclone) supplemented with 10% fetal bovine serum (FBS) (Gibco), 1 mM Sodium Pyruvate (Sigma) 2 mM L-glutamine (Gibco), 1× MEM non-essential amino acids (Gibco) plus penicillin-streptomycin (10 Units/ml and 10 μg/ml respectively) at 37°C in 5% CO2 in a humidified incubator. MDA-MB-231 D3H2LN-Luc TetOn MRCKβ, ROCK1 and ROCK2 selective cell lines were grown in the same media with 10% FBS replaced with 10% Tet System Approved FBS (Clontech).
The kinase domains of MRCKβ (1–473), ROCK1 (1–535) or ROCK2 (1–532) were gene synthesized (Genscript) and subcloned into pTRE3G (Clontech). MDA-MB-231 D3H2LN-Luc Tet3G cells were co-transfected with pTRE3G-MRCKβ (1–473), pTRE3G-ROCK1 (1–535) or pTRE3G-ROCK2 (1–532), together with a linear Pur^r-selection marker using Xfect transfection reagent according to manufacturer’s instructions. […] Each clone was treated with or without doxycycline (1 μg/ml) for 24 hours and kinase domain expression and activity determined by western blotting. […]

[2] = system: SCC12 cells; experiment: Organotypic collagen invasion of SCC12 cells; format: cell-based, human; conditions: 2 μM, ten days
Description: (§1) All results are shown as mean ± standard error of n = 3 independent replicates. […] Readings were compared to the Alamar Blue metabolism in DMSO treated cells that were used as the viability standard of 100% for each replicate experiment. […] (F) Number of invading cells was determined in 5 random fields for each condition for each separate replicate experiment. All results are shown as mean ± standard error of n ≥ 3 independent replicates.
SCC12 invasion assays were performed essentially as described in [12]. HN-CAF cells were grown for 5 days in a Matrigel-collagen gel, covered with DMEM + 10%FBS medium, and allowed to remodel the matrix. The gel consisted of: 280 μL of DMEM + 10% FBS, 100 μL FBS, 20 μL 1 M Hepes pH 7.5 and approximately 200 μL of Matrigel (BD Biosciences, 354234), 400 μL of collagen type 1 (BD Biosciences, 354249) and 5×10^5 HN-CAF cells. Puromycin was subsequently added to the medium at 10 μg/ml for 3 days to remove HN-CAF cells. The gels were washed in SCC medium 3 times for 2 hours and SCC12 cells were plated on the surface of the gel and left to adhere overnight. […] The gels were fixed overnight in 4% PFA and 1% glutaraldehyde in PBS, washed in PBS and processed for histology.

[3] = system: MDA-MB-231 cells; experiment: Matrigel invasion (scratch wound closure, Incucyte) of MDA-MB-231 cells; format: cell-based, human
Description: (§2) (A) MDA-MB-231 human breast cancer cells were plated in 96 well plates, then 24 hours later a ~800 μm scratch wound was created. […] All results are shown as mean ± standard error of n ≥ 4 independent replicates. […] Readings were compared to the Alamar Blue metabolism in DMSO treated cells that were used as the viability standard of 100% for each replicate experiment. All results are shown as mean ± standard error of 3 independent replicates.
(§3) MDA-MB-231 cells were plated at 30,000 cells per well in Image Lock 96 well plates (Essen BioScience) in 100 μL complete DMEM medium and after allowing cells to settle for 20 min were incubated overnight at 37°C in 5% CO2 in a humidified incubator. Matrigel (BD Biosciences) was thawed overnight at 4°C, diluted 1:1 with PBS and 100 μL pipetted over cells that had been scratched with the WoundMaker tool (Essen BioScience). Plates were incubated for 1 h, then appropriately diluted drugs added in 100 μL media to achieve final concentrations. Plates were scanned with an Incucyte Zoom (Essen BioSciences) according to manufacturer’s instructions at 3 hour intervals. Cell viability was determined with AlamarBlue (Invitrogen, DAL 1025), which was added to the medium and cells cultured for 6 hours. Absorbances at 570 nm and at 600 nm were measured to assess metabolic activity.

[4] = system: SCC12 cells; experiment: Cell confluence by Incucyte image analysis, SCC12 cells; format: cell-based, human; conditions: 2 μM, 21 hours
Description: as §1
(§4) MDA MB 231 or SCC12 cells were plated in a 96 well plate and cultured for 24 hours. […] Pictures were taken every 3 hours and confluence was measured using the IncuCyte analysis software. AlamarBlue (Invitrogen, DAL 1025) was added to the medium and the cells were cultured for an additional day. Absorbances at 570 nm and at 600 nm were measured to assess cell health.

[5] = system: SCC12 cells; experiment: Alamar Blue cell viability, SCC12 cells; format: cell-based, human; conditions: 2 μM, 24 hours
Description: as §1, §4

[6] = system: MDA MB 231 cells; experiment: Alamar Blue cell viability, MDA-MB-231 cells; format: cell-based, human; conditions: 24 hours
Description: as §2, §3, §4

Row | Compound | inhibition of MLC phosphorylation induced by MRCKβ ([1]; 3 μM) | SCC12 invasion into three dimensional collagen matrix [2] | inhibition of MDA-MB-231 invasion ([3]; 10 μM) | EC50 ([3]; Homo sapiens, MDA-MB-231, 24 h, read-out: EC50, inhibition of Matrigel invasion (wound closure)) | inhibition at 1 µM ([3]; Homo sapiens, MDA-MB-231, 1 μM) | cell confluence [4] | cell viability (Alamar Blue metabolism) versus DMSO [5] | effect on cell viability ([6]; 1 μM) | EC50 ([6]; Homo sapiens, MDA-MB-231, read-out: EC50, cell viability (Alamar Blue metabolism)) | inhibition of MRCKβ activity (MLC phosphorylation) ([1]; highest 30 μM concentration) | inhibition of wound closure ([3]; 10 μM) | inhibition of invasion ([3]; 30 μM, 24 h) | effect on cell viability ([6]; 10 μM)
1 | O=C(Nc1cn[nH]c1-c1ccccn1)c1nn(C2CCNCC2)cc1Cl [BDP5290, 4-chloro-1-(4-piperidyl)-N-[5-(2-pyridyl)-1H-pyrazol-4-yl]pyrazole-3-carboxamide] | completely inhibited | profound effect | virtually complete inhibition | 440 nM | > 60% | did not significantly differ between treatments | did not differ from DMSO standard values | no effect on cell viability | > 10000 nM |  |  |  | 
2 | C[C@@H](N)[C@H]1CC[C@H](C(=O)Nc2ccncc2)CC1 [Y27632, reference compound] |  | did not significantly affect |  |  |  | did not significantly differ between treatments | did not differ from DMSO standard values |  |  | ≤ 50% | ~ 40% | ≤ 50% | no effect on cell viability
